# Results published in patent publication US20230138400A1, “METHODS AND PHARMACEUTICAL COMPOSITIONS FOR REPROGRAMING IMMUNE ENVIRONMENT IN A SUBJECT IN NEED THEREOF” (INSERM (INSTITUT NATIONAL DE LA SANTE ET DE LA RECHERCHE …, priority 2016, published 2023).
# Columns and labels:
# [1] = system: E0771 sh control or E0771 sh LXR tumors; experiment: Tumor growth and survival, E0771 sh control or E0771 sh LXR tumors, DDA treatment; type: in vivo, mouse
# Protocol: FIGS. 13A-B. Tumor growth analysis (A) Exponentially growing E0771 sh control or E0771 sh LXR cells were collected, washed twice in PBS and resuspended in PBS (300,000 cells in 100 μl PBS). […] mice were grafted subcutaneously with 300 000 E0771 sh control or E0771 sh LXR tumor cells. […] At day 15 of treatment with DDA or the solvent vehicle, the tumors were removed and the immune cells infiltrated into the tumors were analyzed by flow cytometry (see FIG. 14).
# FIGS. 16A-C. The control of tumor growth and the increase in animal survival upon DDA treatment are dependent on the LXRβ expressed in tumor cells. […] The animals were monitored over time for (A) tumor growth and (B) animal survival. (C) Tumor weights were measured at the end of the experiment.
# tumor side lymph nodes = experiment: T cells in tumor side lymph nodes after DDA, flow cytometry; type: in vivo, mouse
# Protocol: FIGS. 20A-C. The priming of T cells inside tumor side lymph node is dependent of the LXR expressed by tumor cells. Animals were grafted with tumor cells and treated as described in FIG. 2. At the end of the experiments, tumor side lymph nodes (mesenteric, auxiliary and brachial) were collected, dissociated and stimulated in vitro with 50 ng/ml of PMA (Sigma), 500 ng/ml Ionomycin (Sigma) and 1/1000 of golgi stop (ebiosicence) during 3 h at 370 to analyze by flow cytometry the phenotype of T cells. (A-C) The dots in the graphs represent the relative number of (A) T regulatory cells (CD4+ Foxp3+), (B) Th1 CD4+ cells (CD4+ T-bet+) and (C) cytotoxic CD8+ T cells (CD8+ Granzym B+ IFNγ+). The vehicle was normalized to 1. Graphs are representative of three independent experiments.
# Organ dissociation and flow cytometry. The tumor-side lymph nodes were dissociated manually while for the tumor, gentlemac technology (Miltenyi) was used. Then, the suspension of tumor cells or lymph node were stimulated with 50 ng/ml of PMA (Sigma), 500 ng/ml Ionomycin (Sigma) and 1/1000 of golgi stop (ebiosicence) during 3 h at 37° C. After that, the single cell suspension were stained with the indicated fluorescent-labelled antibodies: anti mouse α-CD4, α-CD8, α-T-bet, α-Foxp3, α-granzyme B, α-PD-1, α-CD44, α-Ly6C, α-Ly6G, α-CD11b, α-CD11c, α-CD206 IL10, α-CD86 as well as live/dead stain purchased from eBioscience or Biolegend. Intracellular staining for T-bet, Foxp3, and Granzyme B, was performed according the manufacturer's protocol from Biolegend. To set the gates, flow cytometry dot plots were based on comparison with isotype control. Flow cytometry measurements of single-cells suspension were performed on a Fortessa 20X (BD pharmingen) and data were analyzed using FlowJo software.
# [2] = E0771 expressing LXRβ, 0.37 μg/kg DDA IP every two days (FIG. 16)
structure (smiles),measurement,setting,value
"CC(C)CCCC(C)[C@H]1CCC2C3C[C@@H](NCCc4cnc[nH]4)[C@@]4(O)C[C@@H](O)CC[C@]4(C)C3CC[C@@]21C (some centres unmarked) [DDA, 5a-hydroxy-6b-[2-(1H-imidazol-4-yl)ethylamino]cholestan-3b-ol]",animal survival,[1]; [2],increases animal survival
same,tumor growth,[1]; [2],inhibits tumor growth
same,effect on growth of tumors,"[1]; E0771 sh LXR, 0.37 μg/kg DDA every 2 days (FIG. 13)",abolished
same,growth of tumors,"[1]; E0771 sh control, 0.37 μg/kg DDA every 2 days (FIG. 13)",significantly controls the growth
same,number of Th1CD4+ cells infiltrated into tumor side lymph nodes,tumor side lymph nodes; 0.37 μg/kg DDA (FIG. 20),increases
same,number of Treg cells infiltrated into tumor side lymph nodes,tumor side lymph nodes; 0.37 μg/kg DDA (FIG. 20),decreases
same,number of cytotoxic CD8 T cells infiltrated into tumor side lymph nodes,tumor side lymph nodes; 0.37 μg/kg DDA (FIG. 20),increases
same,LXRβ dependence of priming of T cells inside tumor side lymph nodes,tumor side lymph nodes; shLXRβ vs LXRβ expressing tumors (FIG. 20),dependent of the LXRβ
